Where “and” joins values, the source holds several entries; their conditions need not be identical. Equal values may be shown once.
Columns and labels:
HepG2 = test: Repeated-exposure DILI training compounds, resazurin conversion, HepG2
How it was run: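 Hepatotoxicity prediction used a miniaturized 384-well differentiation setup, scoring viability through resazurin reduction relative to Cmax.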

HLC = test: Repeated-exposure DILI training compounds, resazurin conversion, HLC
How it was run: (§1)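 PSC-derived hepatocyte-like cells were differentiated in 384-well plates, and drugs were added after 8 h of attachment. Viability was measured by resazurin conversion and related to therapeutic Cmax values, with untreated wells as negative control.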

HC3X = test: Repeated-exposure DILI training compounds, resazurin conversion, HC3X; conditions: for Resazurin conversion, repeated exposure (Supplementary Figure 7D): HC3X AAGLY D40
How it was run: as §1

HC6X = test: Repeated-exposure DILI training compounds, resazurin conversion, HC6X
How it was run: as §1

## Cc1ccc(C(=O)c2cc(O)c(O)c([N+](=O)[O-])c2)cc1 [tolcapone]
HepG2; HepG2 AAGLY D30, 10 uM
  Resazurin conversion, repeated exposure (Supplementary Figure 7D): 106.6 and 108.2 and 105.6 and 120.1 and 84.5 and 128.6
HepG2; HepG2 AAGLY D30, 30 uM
  Resazurin conversion, repeated exposure (Supplementary Figure 7D): 144.6 and 128.4 and 104.2 and 136.2 and 93.4 and 133.6
HepG2; HepG2 AAGLY D30, 50 uM
  Resazurin conversion, repeated exposure (Supplementary Figure 7D): 126.9 and 134.9 and 97.9 and 148.8 and 105 and 143.9
HepG2; HepG2 AAGLY D30, 300 uM
  Resazurin conversion, repeated exposure (Supplementary Figure 7D): 44.5 and 61.6 and 62 and 66.8 and 60.8 and 73.6
HepG2; HepG2 AAGLY D30, 500 uM
  Resazurin conversion, repeated exposure (Supplementary Figure 7D): 48.7 and 42.4 and 39.6 and 41.5 and 43.3 and 45.5
HepG2; HepG2 AAGLY D30, 1000 uM
  Resazurin conversion, repeated exposure (Supplementary Figure 7D): 27.5 and 27.3 and 26.8 and 27.1 and 27.8
HepG2; HepG2 AAGLY D30, 2000 uM
  Resazurin conversion, repeated exposure (Supplementary Figure 7D): 22.7 and 22.5 and 22.2 and 22.1 and 22.4
HepG2; HepG2 AAGLY D30, 4000 uM
  Resazurin conversion, repeated exposure (Supplementary Figure 7D): 15.8 and 14.5 and 14.4 and 13.5 and 14.3
HepG2; HepG2 CTL D7, 10 uM
  Resazurin conversion, repeated exposure (Supplementary Figure 7D): 87 and 84.9 and 85.9 and 110.7 and 87.4 and 87.2
HepG2; HepG2 CTL D7, 30 uM
  Resazurin conversion, repeated exposure (Supplementary Figure 7D): 113.4 and 88.9 and 98.2 and 86.8 and 100.5 and 86.2
HepG2; HepG2 CTL D7, 300 uM
  Resazurin conversion, repeated exposure (Supplementary Figure 7D): 8.3 and 8 and 7.5 and 8.8 and 8.1
HepG2; HepG2 CTL D7, 500 uM
  Resazurin conversion, repeated exposure (Supplementary Figure 7D): 7.3 and 6.8 and 6.5 and 6.6 and 6.7
HepG2; HepG2 CTL D7, 1000 uM
  Resazurin conversion, repeated exposure (Supplementary Figure 7D): 6.4 and 5.9 and 5.8 and 5.6
HepG2; HepG2 CTL D7, 2000 uM
  Resazurin conversion, repeated exposure (Supplementary Figure 7D): 4.8 and 4.4 and 4
HepG2; HepG2 CTL D7, 4000 uM
  Resazurin conversion, repeated exposure (Supplementary Figure 7D): 2.3 and 2.5 and 2.2 and 2.1 and 2 and 2.6
HLC; HLC AAGLY D40, 10 uM
  Resazurin conversion, repeated exposure (Supplementary Figure 7D): 89.6 and 98.4 and 93.9 and 112.4 and 126.3 and 99.4
HLC; HLC AAGLY D40, 100 uM
  Resazurin conversion, repeated exposure (Supplementary Figure 7D): 143.7 and 88 and 126.1 and 79.6 and 153.9 and 130.7
HLC; HLC AAGLY D40, 500 uM
  Resazurin conversion, repeated exposure (Supplementary Figure 7D): 86.2 and 108.3 and 80.7 and 126.4 and 91.4 and 111.1
HLC; HLC AAGLY D40, 1000 uM
  Resazurin conversion, repeated exposure (Supplementary Figure 7D): 80.1 and 96.8 and 72.2 and 70.6 and 94.2 and 112.4
HLC; HLC LDM D40, 10 uM
  Resazurin conversion, repeated exposure (Supplementary Figure 7D): 110.5 and 107.3 and 79 and 94.2 and 118.4 and 85.4
HLC; HLC LDM D40, 50 uM
  Resazurin conversion, repeated exposure (Supplementary Figure 7D): 117.3 and 84.9 and 88.5 and 107.2 and 94.9 and 106
HLC; HLC LDM D40, 100 uM
  Resazurin conversion, repeated exposure (Supplementary Figure 7D): 136.2 and 145.5 and 129 and 115.8 and 107.1 and 144.8
HLC; HLC LDM D40, 500 uM
  Resazurin conversion, repeated exposure (Supplementary Figure 7D): 60.4 and 57.9 and 62.5 and 68.7 and 54 and 73.8
HLC; HLC LDM D40, 4000 uM
  Resazurin conversion, repeated exposure (Supplementary Figure 7D): 25.6 and 16.8 and 16.1 and 16 and 13.5 and 19.7
HC3X; 10 uM
  Resazurin conversion, repeated exposure (Supplementary Figure 7D): 139.4 and 142.8 and 150.5 and 156.1 and 95.1 and 108.2
HC3X; 30 uM
  Resazurin conversion, repeated exposure (Supplementary Figure 7D): 50.8 and 58.9 and 61.5 and 64.6 and 88.9 and 76.4
HC3X; 300 uM
  Resazurin conversion, repeated exposure (Supplementary Figure 7D): 8.4 and 7.7 and 8 and 9.1 and 9.2
HC3X; 500 uM
  Resazurin conversion, repeated exposure (Supplementary Figure 7D): 11.6 and 15.4 and 8.7 and 13.6 and 11.8 and 12.2
HC3X; 1000 uM
  Resazurin conversion, repeated exposure (Supplementary Figure 7D): 6.7 and 6.6 and 6.4 and 6.5 and 7.5 and 9.6
HC3X; 2000 uM
  Resazurin conversion, repeated exposure (Supplementary Figure 7D): 4.2 and 4.1 and 4.6
HC3X; 4000 uM
  Resazurin conversion, repeated exposure (Supplementary Figure 7D): 3.1 and 3.3 and 3 and 3.2 and 3.4
HC3X; human
  IC50/Cmax: 0.83
HC6X; HC6X AAGLY D40, 10 uM
  Resazurin conversion, repeated exposure (Supplementary Figure 7D): 103.7 and 134.6 and 82 and 87 and 83.1 and 109.6
HC6X; HC6X AAGLY D40, 30 uM
  Resazurin conversion, repeated exposure (Supplementary Figure 7D): 98.2 and 113.2 and 82.9 and 88.4 and 81.1 and 97.8
HC6X; HC6X AAGLY D40, 100 uM
  Resazurin conversion, repeated exposure (Supplementary Figure 7D): 47.9 and 57 and 49.7 and 51.8 and 54.9 and 72.8
HC6X; HC6X AAGLY D40, 300 uM
  Resazurin conversion, repeated exposure (Supplementary Figure 7D): 39.5 and 40.5 and 38.8 and 59.9 and 40.3 and 47.8
HC6X; HC6X AAGLY D40, 500 uM
  Resazurin conversion, repeated exposure (Supplementary Figure 7D): 34.3 and 39.2 and 30.7 and 33.5 and 40.3 and 34.2
HC6X; HC6X AAGLY D40, 1000 uM
  Resazurin conversion, repeated exposure (Supplementary Figure 7D): 31.1 and 26.7 and 26.3 and 27.6 and 26.5
HC6X; HC6X AAGLY D40, 2000 uM
  Resazurin conversion, repeated exposure (Supplementary Figure 7D): 22.1 and 28.3 and 22.3 and 22.5 and 23 and 22.4
HC6X; HC6X AAGLY D40, 4000 uM
  Resazurin conversion, repeated exposure (Supplementary Figure 7D): 17.8 and 17.3 and 16.6 and 16.3 and 16.4 and 16.8
HC6X; HC6X AAGLY D40 Remove dox, 30 uM
  Resazurin conversion, repeated exposure (Supplementary Figure 7D): 108.6 and 121.2 and 103 and 112.9 and 119.8 and 93.5
HC6X; HC6X AAGLY D40 Remove dox, 50 uM
  Resazurin conversion, repeated exposure (Supplementary Figure 7D): 77 and 153.8 and 144.7 and 105.2 and 81.9 and 88.4
HC6X; HC6X AAGLY D40 Remove dox, 1000 uM
  Resazurin conversion, repeated exposure (Supplementary Figure 7D): 78.8 and 118 and 78.9 and 118.9 and 81.8 and 105.5

Source: PMC7069944, “Amino acid levels determine metabolism and CYP450 function of hepatocytes and hepatoma cell lines” (Nature Communications, 2020)
